In EPA's ToxValDB 9.5:
Values after ≈ are worked out from the molar mass of the structure shown. Values joined by “and” are separate entries in the source; they are usually repeats but may differ in a detail not shown here. Identical values can stand only once.

Legend:
Canidae [1] = conditions: oral, Beagle
Rattus norvegicus [2] = test system: Rattus norvegicus
Rattus norvegicus [3] = test system: Rattus norvegicus; remark: listed apart in the source
Oryctolagus sp. = conditions: acute, dermal
Rattus norvegicus [4] = conditions: oral
Rattus norvegicus [5] = test system: Rattus norvegicus; remark: listed apart in the source
Rattus norvegicus [6] = conditions: oral; remark: listed apart in the source
Mus musculus = conditions: short-term; duration: 14 days; oral; drinking water; M/F; B6C3F1; hepatic
Rattus norvegicus [7] = conditions: for LOAEL: short-term
Rattus norvegicus [8] = conditions: Hershberger; duration: 10 days; oral; gavage; Sprague-Dawley; inactive + Negative + Negative + neither + negative
Homo sapiens = conditions: clinical
Rattus norvegicus [9] = conditions: developmental; oral; diet; Fetus: Fetotoxicity
Canidae [10] = conditions: subchronic; duration: 90 days; oral; diet; Beagle
Canidae [11] = conditions: subchronic; oral; M/F; Dog Other; red blood cell and liver effects
[12] = subchronic, duration: 90 days, oral, diet, Sprague-Dawley
[13] = developmental, oral, F, reduced delayed hypersensitivity response
[14] = reproduction developmental, Long-Evans, Micromelia, ectromelia, curved femur and microfetalis
[15] = chronic, duration: 2 years, oral, drinking water, M/F, Long-Evans, Whole Body Effects
[16] = chronic, duration: 2 years, oral, diet, M/F, reduced body weight (males), inflammatory foci in kidneys of females
[17] = chronic, oral, M/F, reduced body weight
[18] = subchronic, duration: 90 days, inhalation, M/F, nasal turbinates
[19] = chronic, oral, diet, M/F, kidney toxicity
[20] = chronic, duration: 12 months, capsule, M/F, Decreased bodyweight gains & peripheral redness
[21] = duration: 12 months, capsule, M/F, Decreased bodyweight gains & peripheral redness

SMILES: CN1C(=O)[C@]23C[C@H]4C(C)(C)[C@]5(CNc6c5ccc5c6OC=CC(C)(C)O5)C[C@@]41CN2CC[C@@]3(C)O
- LOAEL (Canidae [1]; subchronic, duration: 90 days, capsule / gavage, M/F, Protruding nictitating membranes, dilated pupils, eye redness and decreased indirect pupillary light response): 0.1 mg/kg-day

SMILES: Clc1cccc(Cl)c1Cl [1,2,3-Trichlorobenzene]
- NOAEL (Rattus norvegicus [2]; developmental, duration: 10 days, oral, gavage, Sprague-Dawley): 600 mg/kg-day
- NOAEL (Rattus norvegicus [2]; reproduction developmental, duration: 10 days, oral, gavage, F, Sprague-Dawley): 150 mg/kg-day
- LOAEL (Rattus norvegicus [2]; [12]): 96 mg/kg-day
- NOAEL (Rattus norvegicus [2]; [12]): 9.6 mg/kg-day
- NOAEL (Rattus norvegicus [3]; subchronic, duration: 13 weeks, oral, diet, M, Sprague-Dawley, Whole Body Effects, Hepatic): 7.7 mg/kg-day

SMILES: FC(F)(F)c1ccc(Cl)c(Cl)c1 [1,2-Dichloro-4-(trifluoromethyl)benzene]
- LD50 (Oryctolagus sp.): > 5000 mg/kg
- LD50 (Oryctolagus sp.; occlusive): 5000 mg/kg
- LD50 (Rattus norvegicus [2]; acute, oral, CF Nelson): 1150 mg/kg
- NOAEL (Rattus norvegicus [2]; short-term, duration: 28 days, oral, diet, Sprague-Dawley): 20 ppm
- NOAEL (Rattus norvegicus [3]; short-term, duration: 14 days, oral, gavage, M/F, Albino CD): 60 mg/kg-day

SMILES: Oc1ccc(Cl)cc1Cl [2,4-Dichlorophenol]
- NOAEL (Rattus norvegicus [4]; subchronic, duration: 90 days, diet, M/F, Fischer 344, Clinical Observation: Hunched posture Rough hair coats + Body Weight Changes: decrease + Food Consumption: decrease, (palatability decrease…): 480 mg/kg-day
- LOAEL (Rattus norvegicus [5]; [13]): 3 mg/kg-day
- NOEL (Rattus norvegicus [5]; [13]): 0.3 mg/kg-day
- LOAEL (Rattus norvegicus [3]; subchronic, duration: 13 weeks, oral, drinking water, M/F, Sprague-Dawley, Whole Body Effects): 3 mg/kg-day

SMILES: O=[N+]([O-])c1cc(C(F)(F)F)ccc1Cl [4-Chloro-3-nitrobenzotrifluoride]
- LOAEL (Rattus norvegicus [3]; short-term, duration: 28 days, oral, gavage, M, Sprague-Dawley): 1 mg/kg-day

SMILES: CC(=O)c1ccccc1 [Acetophenone]
- NOAEL (Rattus norvegicus [5]; subchronic, oral, M/F, general toxicity): 423 mg/kg-day
- NOAEL (Rattus norvegicus [3]; reproduction developmental, oral, gavage, M/F, Sprague-Dawley): 225 mg/kg-day

SMILES: CCCSc1ccc2nc(NC(=O)OC)[nH]c2c1 [Albendazole]
- LOEL (Rattus norvegicus [6]; [14]): 10 mg/kg-day
- NOEL (Rattus norvegicus [6]; [14]): 5 mg/kg-day

SMILES: [Cl][Sb]([Cl])[Cl] [Antimony trichloride]
- LOAEL (Rattus norvegicus [3]; [15]): 0.35 mg/kg-day

SMILES: [Sb] [Antimony]
- LOAEL (Rattus norvegicus [5]; chronic, oral, M/F, longevity, blood glucose, and cholesterol): 0.35 mg/kg-day
- LOAEL (Rattus norvegicus [3]; [15]): 0.35 mg/kg-day
- NOAEL (Mus musculus): 99 mg/kg-day
- NOAEL (Rattus norvegicus [7]; subchronic, duration: 13 weeks, oral, drinking water, M/F, Sprague-Dawley, metabolic): 0.06 mg/kg-day

SMILES: COC[C@H]1O[C@@H](OC2OC[C@@H]3O[C@]4(O[C@H]3[C@H]2OC(=O)C(C)C)O[C@H](C)[C@@](O)(C(C)=O)[C@@H]2OCO[C@H]24)[C@@H](OC)[C@@H](O)[C@@H]1O[C@@H]1O[C@H](C)[C@H](OC)[C@H](O[C@H]2C[C@@]3(C)OC4(C[C@@H](O)[C@H](O[C@H]5C[C@@H](O)[C@H](OC(=O)c6c(C)c(Cl)c(O)c(Cl)c6OC)[C@@H](C)O5)[C@@H](C)O4)O[C@@H]3[C@@H](C)O2)[C@H]1O (stereo partly specified) [Avilamycin]
- NOEL (Rattus norvegicus [6]; reproduction developmental, duration: 2 years, diet, M/F, Sprague-Dawley, no effects): 150 mg/kg-day

SMILES: CC1(C)C(C=C(Cl)Cl)C1C(=O)OC(C#N)c1ccc(F)c(Oc2ccccc2)c1 (stereo unspecified) [Cyfluthrin]
- LEL (Rattus norvegicus [5]; [16]): 7.5 mg/kg-day
- NOEL (Rattus norvegicus [5]; [16]): 2.5 mg/kg-day
- NOEL (Rattus norvegicus [8]): 20 mg/kg-day
- NOEL (Rattus norvegicus [6]; chronic, duration: 2 years, diet, M/F, Wistar, Depressed bodyweight gain): 2 mg/kg-day
- NOEL (Rattus norvegicus [6]; dietary / carcinogenicity, duration: 2 years, feed, M/F, Wistar, Depressed bodyweight gain): 2 mg/kg-day

SMILES: c1ccc2c(c1)oc1ccccc12 [Dibenzofuran]
- NOEL (Rattus norvegicus [4]; short-term, duration: 28 days, gavage, F, Sprague-Dawley, Clinical Observation: Locomotor activity decrease, Salivation Soiled perineal region + Body Weight Changes: decrease + Urinalysis: Volume …): 40 mg/kg-day
- NOAEL (Rattus norvegicus [4]; short-term, duration: 28 days, gavage, M/F, Sprague-Dawley, Clinical Observation: Locomotor activity decrease, Salivation Soiled perineal region + Body Weight Changes: decrease + Urinalysis: Volume …): 40 mg/kg-day
- LOAEL (Rattus norvegicus [3]; chronic, duration: 200 days, oral, diet, F, albino, Whole Body Effects): 12.3 mg/kg-day

SMILES: FC(F)(Cl)Cl [Dichlorodifluoromethane]
- LOAEL (Rattus norvegicus [5]; [17]): 150 mg/kg-day
- NOAEL (Rattus norvegicus [5]; [17]): 15 mg/kg-day
- NOAEL (Rattus norvegicus [3]; chronic, duration: 2 years, oral, gavage, M/F, Crl:CD(SD), Whole Body Effects): 15 mg/kg-day

SMILES: ClCC1CO1 (stereo unspecified) [Epichlorohydrin]
- LOAEL (Rattus norvegicus [5]; [18]): 95 mg/m3
- NOAEL (Rattus norvegicus [5]; [18]): 19 mg/m3
- LOAEL (Rattus norvegicus [3]; reproduction developmental, duration: 23 days, oral, gavage, M, Long-Evans, reproductive): 6.25 mg/kg-day

SMILES: OCCO [Ethylene glycol]
- NOAEL (Rattus norvegicus [4]; chronic, duration: 16 weeks, diet, M, Wistar, Deaths + Body Weight Changes: Mean body weight decrease + Food Consumption: decrease + Water Consumption: increase + Urinalysis: SG decrease…): 150 mg/kg-day
- NOAEL (Rattus norvegicus [4]; chronic, duration: 16 weeks, diet, M, Wistar, Water Consumption: increase + Urinalysis: SG decrease, VOL increase + Absolute Organ Weight: Kidney increase + Relative Organ Weight: Kidney…): 150 mg/kg-day
- LOAEL (Rattus norvegicus [5]; [19]): 1000 mg/kg-day
- NOEL (Rattus norvegicus [5]; [19]): 200 mg/kg-day
- NOAEL (Homo sapiens; duration: 30 days, inhalation, M, respiratory): 23 mg/m3
- NOEL (Rattus norvegicus [9]): 200 mg/kg-day

SMILES: CC1(C)C(C=C(Cl)c2ccc(Cl)cc2)C1C(=O)OC(C#N)c1ccc(F)c(Oc2ccccc2)c1 (stereo unspecified) [Flumethrin]
- NOAEL (Rattus norvegicus [6]; developmental, Reduced pup survival and bodyweight gain. Maternal toxicity: salivation): 0.37 mg/kg-day

SMILES: CCCC[C@@H](C)[C@@H](OC(=O)C[C@@H](CC(=O)O)C(=O)O)[C@H](C[C@@H](C)C[C@H](O)CCCC[C@@H](O)C[C@H](O)[C@H](C)N)OC(=O)C[C@@H](CC(=O)O)C(=O)O [Fumonisin B1]
- NOEL (Rattus norvegicus [4]; short-term, duration: 28 days, diet, M/F, Fischer 344, Body Weight Changes: decrease + Blood Chemistry: Crn increase, TP increase, Cho increase, TG increase, ALT increase, ALP increase, AST …): < 99 ppm
- NOEL (Rattus norvegicus [6]; subchronic, duration: 90 days, diet, M/F, Fischer 344, Nephrotoxicity): 0.2 mg/kg-day

SMILES: N#CCCCCC#N [Hexanedinitrile]
- LD50 (Oryctolagus sp.; occlusive, New Zealand): 2130 mg/kg
- LC50 (Rattus norvegicus [2]; acute, inhalation, Sprague-Dawley): 1.71 mg/L (≈ 15.8 µM)
- LD50 (Rattus norvegicus [2]; acute, oral, gavage, Crl:CD(SD)): 138 mg/kg and 301 mg/kg
- NOAEL (Rattus norvegicus [2]; developmental, duration: 14 days, oral, gavage, Sprague-Dawley): > 80 mg/kg-day
- NOAEL (Rattus norvegicus [3]; subchronic, duration: 13 weeks, inhalation, whole body, M/F, Crl:CD(SD), Hematologic): 31 mg/m3

SMILES: F [Hydrogen fluoride]
- LOAEL (Homo sapiens; duration: 1 hours, inhalation, M, respiratory): 0.409 mg/m3

SMILES: Cc1c(Cc2cc(C(C)(C)C)c(O)c(C(C)(C)C)c2)c(C)c(Cc2cc(C(C)(C)C)c(O)c(C(C)(C)C)c2)c(C)c1Cc1cc(C(C)(C)C)c(O)c(C(C)(C)C)c1 [Ionox 330]
- NOAEL (Canidae [10]): 185 mg/kg-day
- LD50 (Rattus norvegicus [2]; acute, dermal, semiocclusive): > 2000 mg/kg
- LD50 (Rattus norvegicus [2]; acute, injection, intraperitoneal, Sprague-Dawley): > 1000 mg/kg
- LD50 (Rattus norvegicus [2]; acute, oral, Carworth 'E' and 'N' strains): > 5000 mg/kg
- NOAEL (Rattus norvegicus [2]; subchronic, duration: 90 days, oral, diet): > 960 mg/kg-day
- NOAEL (Rattus norvegicus [2]; subchronic, duration: 90 days, oral, diet, albino): 480 mg/kg-day

SMILES: c1ccc([C@H]2CN3CCSC3=N2)cc1 [Levamisole]
- LOEL (Canidae [1]; immunotoxicology, duration: 14 months, capsule, Re-emergence of haemolytic anaemia): 1.25 mg/kg-day

SMILES: CC[C@@]1([C@@H]2O[C@@H]([C@H]3O[C@@](O)(CO)[C@H](C)C[C@@H]3C)C[C@@H]2C)CC[C@H]([C@]2(C)CC[C@]3(C[C@H](O)[C@@H](C)[C@@H]([C@@H](C)[C@@H](OC)[C@H](C)C(=O)O)O3)O2)O1 [Monensin]
- NOAEL (Rattus norvegicus [6]; chronic, duration: 2 years, diet, M/F, Wistar, Decreased bodyweight gain): 1.14 mg/kg-day

SMILES: CCOP(=S)(OCC)ON=C(C#N)c1ccccc1 [Phoxim]
- NOEL (Rattus norvegicus [4]; short-term, duration: 28 days, gavage, M/F, Slc: Wistar, Clinical Observation: Salivation + Body Weight Changes: decrease + Hematology: Hgb decrease, , Hct decrease, Plt increase, WBC increase + …): < 7.5 mg/kg-day
- NOEL (Rattus norvegicus [4]; short-term, duration: 28 days, gavage, M/F, Wistar, Clinical Observation: Salivation + Body Weight Changes: Weight gain decrease + Blood Chemistry: TP increase, ALB increase, A/G increasegamma…): < 7.5 mg/kg-day
- NOEL (Canidae [1]; chronic, duration: 2 years, diet, M/F, Liver effects and inhibition of brain acetylcholinesterase activity): 0.38 mg/kg-day
- NOEL (Canidae [1]; duration: 2 years, feed, M/F, Liver effects and inhibition of brain acetylcholinesterase activity): 0.38 mg/kg-day

SMILES: [I-].[Na+] [Sodium iodide]
- NOAEL (Homo sapiens; duration: 14 days, oral, M/F, endocrine): 0.01 mg/kg-day

SMILES: C=Cc1ccccc1 [Styrene]
- LOAEL (Canidae [11]): 400 mg/kg-day
- NOAEL (Canidae [11]): 200 mg/kg-day
- NOAEL (Homo sapiens; duration: 6 hours, inhalation, M, neurological): 209 mg/m3
- LOAEL (Rattus norvegicus [7]; duration: 14 days, oral, gavage, M, Wistar, neurological): 100 mg/kg-day
- NOEL (Rattus norvegicus [6]; chronic, duration: 2 years, drinking water, M/F, Sprague-Dawley, Decreased bodyweight, females): 7.7 mg/kg-day and 14 mg/kg-day

SMILES: O=S=O [Sulfur dioxide]
- LOAEL (Homo sapiens; duration: 1 days, inhalation, M/F, respiratory): 0.262 mg/m3

SMILES: [Tl] [Thallium]
- LOAEL (Rattus norvegicus [3]; subchronic, duration: 90 days, oral, gavage, M/F, Sprague-Dawley): 0.04 mg/kg-day

SMILES: CC[C@H]1OC(=O)C[C@@H](O)[C@H](C)[C@@H](O[C@@H]2O[C@H](C)[C@@H](O)[C@H](N(C)C)[C@H]2O)[C@@H](CCN2C[C@H](C)C[C@H](C)C2)C[C@@H](C)C(=O)/C=C/C(C)=C/[C@@H]1CO[C@@H]1O[C@H](C)[C@@H](O)[C@@H](OC)[C@H]1OC [Tilmicosin]
- LOEL (Canidae [1]; [20]): 12 mg/kg-day
- NOEL (Canidae [1]; [20]): 4 mg/kg-day
- LOEL (Canidae [1]; [21]): 12 mg/kg-day
- NOEL (Canidae [1]; [21]): 4 mg/kg-day

SMILES: [V] [Vanadium]
- NOAEL (Homo sapiens; duration: 12 weeks, oral, capsule, M/F, hematological): 0.12 mg/kg-day
- LOAEL (Rattus norvegicus [7]; duration: 16 days, inhalation, F, Fischer 344, respiratory): 0.56 mg/m3
